“And” between values parts separate entries of the source, which are not always exact repeats. Equal values may be shown once.
Legend:
GABAR = test: Whole cell voltage clamp of isolated dentate granule cells (DGCs), response to GABA, after in vivo HDAC inhibitor treatment; set-up: species or system rats
AMPAR = test: Whole cell voltage clamp of isolated DGCs, response to kainate + cyclothiazide, after in vivo HDAC inhibitor treatment; set-up: species or system rats
NMDAR = test: Whole cell voltage clamp of isolated DGCs, response to NMDA, after in vivo HDAC inhibitor treatment; set-up: species or system rats; conditions: for increase of DGC NMDAR current densities in control rats: treated control vs control (VPA) or control+vehicle (TSA)
HDAC [1] = conditions: cited from earlier work; for IC50: read-out: IC50 (HDAC inhibition)
HDAC [2] = conditions: HDAC inhibitors in rats; cited from earlier work
[3] = test system: HeLa cell nuclear extract HDACs; conditions: Enhances histone acetylation in HeLa cell nuclear extract; reference 4; cited from earlier work
HDAC (293T cells) = test system: T1, HDAC (293T cells); conditions: 293T cells-HDAC assay; reference 6; cited from earlier work
T1 construct: IC50; other: 293T cells-HDAC assay

[4] = test system: rats post pilocarpine-induced status epilepticus; test: Chronic epilepsy monitoring (video) after pilocarpine-induced SE; type: in vivo; conditions: TSA injected three times, 2 hr, 6 hr and 24 hr post SE; seven weeks monitoring; vs vehicle
Procedure: Trichostatin A (TSA) administration. TSA was administered in the lateral ventricle {−0.8 mm A-P; 1.5 LAT; 3.2 DOWN (Paxinos and Watson 1982)} one hour prior to pilocarpine injection to induce SE. The cannula guide had been previously implanted using stereotaxic surgery two weeks prior to experiment to allow animals properly recovery. TSA (5 μl) was delivered via tubing connected to a pump at a concentration of 5 μg/ml (vehicle, 0.9% saline) at a rate of 1 μl/min for 5 minutes through 29-gauge tubing attached to the cannula. Successful delivery of TSA was verified by histological examination of cannula position and a moving mark inside the tubing. In additional studies (FIGS. 5 and 6), TSA was administered I.P., 2, 6, and 24 hrs post SE.
Pilocarpine-induced status epilepticus. Rats were injected with (−) scopolamine methyl nitrate (1 mg/kg body weight, s.c.) 30 min prior to pilocarpine hydrochloride (405 mg/kg body weight, s.c.). Controls received a sub-convulsive dosage of pilocarpine (40 mg/kg, s.c.). After one hour of SE, diazepam was used to stop SE.
Chronic epilepsy monitoring in TSA treatment. […] This effect lasted for at least 5-7 days, during which time animals had no behavioral seizures (latent period). Animals sequentially developed spontaneous seizures (epilepsy). […] Animals were video monitored for 7 weeks post SE, and the frequency and severity of seizures was quantified.

[5] = target: purified nuclear histone deacetylase; conditions: Calf thymus, reference 2; cited from earlier work
[6] = DGCs 1 Wk post SE, VPA study (FIG. 2B)
[7] = control rats, VPA in drinking water
[8] = DGCs 1 Wk post SE, TSA in the lateral ventricle
[9] = control rats, TSA in the lateral ventricle

What does the source list for `CCCC(CCC)C(=O)[O-].[Na+]` [VPA, 2-propyl-pentanoic acid-sodium salt]?
GABAR Charge transfer density (GABAR; DGCs 1 Wk post SE): 217.0 ± 16.4 (n = 73) (msec) × (nA)/(pF); GABAR Desensitization % (GABAR; DGCs 1 Wk post SE): 76.5 ± 2.1 (n = 73) %; GABAR current densities (GABAR; [6]): 234.6±12.7 pA/pF; GABAR Current density (GABAR; DGCs 1 Wk post SE, GABA 1 mM): 234.6 ± 12.7 (n = 74) Pa/pF; GABAR current densities (GABAR; control rats + VPA (FIG. 2B)): 243.04±19.25 pA/pF; GABAR Charge transfer density (GABAR; [7]): 239.8 ± 27.8 (n = 22) (msec) × (nA)/(pF); GABAR Current density (GABAR; control rats, VPA in drinking water 1.0 g/kg daily, GABA 1 mM): 243.0 ± 19.3 (n = 22) Pa/pF; GABAR Desensitization % (GABAR; control rats, VPA in drinking water, 2-second agonist application): 70.3 ± 4.2 (n = 22) %; AMPAR Charge transfer density (AMPAR; DGCs 1 Wk post SE): 459.8 ± 30.8 (n = 66) (msec) × (nA)/(pF); effect on reduced AMPAR function / current densities (AMPAR; DGCs 1 Wk post SE): partially restore; AMPAR Charge transfer density (AMPAR; [7]): 780.4 ± 53.3 (n = 26) (msec) × (nA)/(pF); NMDAR Desensitization % (NMDAR; DGCs 1 Wk post SE): 43.9 ± 2.7 (n = 61) %; NMDAR Desensitization tau (NMDAR; DGCs 1 Wk post SE): 768.6 ± 51.1 (n = 51) Msec; NMDAR Current density (NMDAR; DGCs 1 Wk post SE, NMDA 100 μM, Mg-free): 74.0 ± 9.5 (n = 62) Pa/pF; NMDAR current densities (NMDAR; control rats + VPA (FIG. 4)): 102.1±17.5 pA/pF; NMDAR Charge transfer density (NMDAR; [7]): 123.2 ± 18.0 (n = 25) (msec) × (nA)/(pF); NMDAR Desensitization % (NMDAR; [7]): 35.6 ± 4.6 (n = 25) %; NMDAR Desensitization tau (NMDAR; [7]): 669.8 ± 77.3 (n = 21) Msec; increase of DGC NMDAR current densities in control rats (NMDAR): 49.9%; IC50 (HDAC [1]): 400 µM; EC50 (HDAC [2]): 300 to 700 µM; Ki [3]: 510 µM; IC50 (HDAC (293T cells)): 700 to 1000 µM

With `CC(/C=C/C(=O)NO)=C\[C@@H](C)C(=O)c1ccc(N(C)C)cc1` [TSA, Trichostatin A] as the compound, how does the GABAR Current density (GABAR; DGCs 1 Wk post SE, 1-hr post SE TSA i.p. injection (FIG. 6)) read?
The GABAR Current density was 235.1±62.3 pA/pF.

And the “GABAR Charge transfer density” value (GABAR; [8])?
The value was 185.9 ± 18.4 (n = 30) (msec) × (nA)/(pF).

What about the “GABAR Desensitization %” value (GABAR; [8]) of the same compound?
The value was 83.1 ± 2.0 (n = 30) %.

What about the “GABAR Current density” value (GABAR; DGCs 1 Wk post SE, TSA in the lateral ventricle one hour prior to pilocarpine, GABA 1 mM) of the same compound?
The value was 225.6±17.3 pA/pF and 225.6 ± 17.3 (n = 32) pA/pF.

And the “GABAR Charge transfer density” value (GABAR; [9])?
The value was 169.7 ± 14.2 (n = 37) (msec) × (nA)/(pF).

What about the “GABAR Desensitization %” value (GABAR; [9]) of the same compound?
Its value is 83.8 ± 1.5 (n = 36) %.

What about the “GABAR Current density” value (GABAR; control rats, TSA in the lateral ventricle, GABA 1 mM) of the same compound?
The value was 217.9±12.8 pA/pF and 217.9 ± 12.8 (n = 36) pA/pF.

And the “increase of AMPAR current densities in control rats” value (AMPAR; Control+TSA vs Control+vehicle)?
Its value is 43.8%.

And the “effect on reduced AMPAR function / current densities” value (AMPAR; DGCs 1 Wk post SE)?
Its value is “totally prevented”.

And the “AMPAR Charge transfer density” value (AMPAR; [8])?
Its value is 703.3 ± 49.9 (n = 33) (msec) × (nA)/(pF).

And the “AMPAR Charge transfer density” value (AMPAR; [9])?
Its value is 907.6 ± 57.7 (n = 41) (msec) × (nA)/(pF).

What about the “effect on NMDAR current density” value (NMDAR; DGCs 1 Wk post SE, TSA i.p. post SE (FIG. 6)) of the same compound?
The value was “no significant effect”.

What about the “NMDAR Charge transfer density” value (NMDAR; [8]) of the same compound?
The value was 153.7 ± 16.6 (n = 31) (msec) × (nA)/(pF).

And the “NMDAR Current density” value (NMDAR; [8])?
Its value is 117.3±16.0 pA/pF and 117.3 ± 16.0 (n = 31) pA/pF.

What about the “NMDAR Desensitization %” value (NMDAR; [8]) of the same compound?
Its value is 38.5 ± 3.5 (n = 31) %.

What about the “NMDAR Desensitization tau” value (NMDAR; [8]) of the same compound?
The value was 1222.1 ± 173.8 (n = 28) msec.

What about the “NMDAR Charge transfer density” value (NMDAR; [9]) of the same compound?
Its value is 196.2 ± 14.4 (n = 39) (msec) × (nA)/(pF).

What about the “NMDAR Desensitization %” value (NMDAR; [9]) of the same compound?
Its value is 27.1 ± 2.2 (n = 39) %.

And the “NMDAR Desensitization tau” value (NMDAR; [9])?
The value was 1262.6 ± 197.5 (n = 37) msec.

What about the “NMDAR Current density” value (NMDAR; control rats, TSA in the lateral ventricle, NMDA 100 μM, Mg-free) of the same compound?
Its value is 121.0±9.0 pA/pF and 121.0 ± 9.0 (n = 39) pA/pF.

What about the “increase of DGC NMDAR current densities in control rats” value (NMDAR) of the same compound?
Its value is 83.1%.

What about the “reduction of average spontaneous seizure frequency” value [4] of the same compound?
Its value is “more than 70%”.

And the “IC50 / working range (HDAC inhibition)” value (HDAC [1]; in vitro)?
The value was “nM affinity range”.

What about the EC50 (HDAC [2]) of the same compound?
The EC50 was 0.05 to 0.5 µM.

Which results are given for `CCCC(=O)[O-].[Na+]` [Sodium Butyrate, Sodium butyrate]?
IC50 (HDAC [1]): 1500 µM; EC50 (HDAC [2]): 200 to 500 µM; IC50 (HDAC (293T cells)): 300 to 400 µM; IC50 [5]: 250 µM

Which “GABAR Charge transfer density” value (GABAR; DGCs 1 Wk post SE) does the source give for `CCCC(CCC)C(N)=O` [VPM, valpromide] here?
Its value is 249.5 ± 41.5 (n = 26) (msec) × (nA)/(pF).

And the “GABAR Desensitization %” value (GABAR; DGCs 1 Wk post SE)?
The value was 77.3 ± 2.7 (n = 27) %.

What about the GABAR current densities (GABAR; [6]) of the same compound?
Its GABAR current densities is 218.63±33.2 pA/pF.

What about the “GABAR Current density” value (GABAR; DGCs 1 Wk post SE, GABA 1 mM) of the same compound?
Its value is 218.6 ± 33.2 (n = 30) Pa/pF.

And the “AMPAR Charge transfer density” value (AMPAR; DGCs 1 Wk post SE)?
The value was 615.3 ± 42.3 (n = 27) (msec) × (nA)/(pF).

And the AMPAR current densities (AMPAR; DGCs 1 Wk post SE, VPA study (FIG. 3))?
Its AMPAR current densities is 302.5±20.2 pA/pF.

And the “NMDAR Charge transfer density” value (NMDAR; DGCs 1 Wk post SE)?
Its value is 180.0 ± 22.4 (n = 26) (msec) × (nA)/(pF).

And the “NMDAR Desensitization %” value (NMDAR; DGCs 1 Wk post SE)?
Its value is 46.7 ± 4.5 (n = 25) %.

And the “NMDAR Desensitization tau” value (NMDAR; DGCs 1 Wk post SE)?
Its value is 787.8 ± 131.5 (n = 23) Msec.

What about the NMDAR current densities (NMDAR; DGCs 1 Wk post SE, VPA study (FIG. 4)) of the same compound?
The NMDAR current densities was 141.1±17.3 pA/pF.

From patent US20050075282A1, “Materials and methods for inhibiting the development of epilepsy” (priority 2003, published 2005)
